From PMC13077603, “Fluorine‐18‐Labeled Nucleotide Analogs Targeting Ecto‐5'‐Nucleotidase (CD73) for Positron Emission Tomography Imaging of Solid Tumors” (Angewandte Chemie (International Ed. in English), 2026) come the findings set out here.

The subject of this series is MDA‐MB‐231 tumor. Description: PET imaging in MDA-MB-231 breast cancer xenograft model. It is filed as in vivo, NSG mice. As to the method:
Given the specificity of [^18F]1 and [^18F]2 and the promising in vivo biodistribution profile of [^18F]1, we established a small‐animal human breast tumor xenograft model in NSG mice subcutaneously implanted with MDA‐MB‐231 cells. […] For blocking studies, PSB‐12651 (15, Figure 6) or unlabeled 1 were used.
FIGURE 6 PET imaging data in an MDA‐MB‐231 tumor mouse model. (A). PET images, CT scans, and merged images of [^18F]2 in the MDA‐MB‐231 tumor mouse model 90 min after tracer injection. White arrows mark the tumor positions. (B). Quantitative PET analysis of [^18F]2 uptake: activity concentration of [^18F]2 in muscle and tumor tissues 90 min after tracer injection (left) and respective tumor‐to‐muscle ratio (right, n = 5 tumors). (C). PET‐CT images of [^18F]1 and [^18F]FDG in the MDA‐MB‐231 tumor mouse model, 260 min ([^18F]1), or 75 min ([^18F]FDG) after injection. […] White arrows mark the positions of tumors. (D). Quantitative PET analysis of [^18F]1 uptake: activity concentration of [^18F]1 and [^18F]FDG in muscle and tumor tissues (left) and tumor‐to‐muscle ratios (right) after 260 min. [^18F]1: n = 18 tumors, [^18F]1 plus unlabeled 1 block: n = 8 tumors, [^18F]1 plus compound 15 block: n = 6 tumors, [^18F]FDG: n = 18 tumors E. Ex vivo analysis of [^18F]1 uptake as measured by gamma counter: activity concentrations of [^18F]1 in muscle and tumor tissues after 260 min without and with blocking (left) and tumor‐to‐muscle ratios (right). [^18F]1: n = 6 tumors, [^18F]1 plus unlabeled 1 block: n = 6 tumors, [^18F]1 plus compound 15 block: n = 5 tumors.^# relative to the respective muscle, *relative to [^18F]1 without blocker, relative to the unblocked tumor; *<0.05; **<0.01, ***<0.001,^#<0.05; ^## <0.01, ^###<0.001, <0.05; <0.01, <0.001, ns: non‐significant, unpaired t‐test.
MDA-MB-231 cells were cultivated in DMEM/GlutaMAX, supplemented with 10 % fetal calf serum, 100 U/mL penicillin, and 100 µg/mL streptomycin and L-glutamine to a final concentration of 8 mmol/L. AsPC-1 cells were cultivated in RPMI, supplemented with 10 % fetal calf serum, 100 U/mL penicillin, and 100 µg/mL streptomycin and L-glutamine to a final concentration of 8 mmol/L. 5 x 10^6 MDA-MB-231 or 1x 10^6 AsPC-1 cells were injected subcutaneously into the shoulder region of 7 to 12 weeks old NSG (NOD.Cg-Prkdc^scid Il2rg^tm1Wjl/SzJ) mice (Charles River Laboratories). Two tumors were inoculated per animal, and growth was followed by digital caliper measurements (volume = ½ (length * width^2)).
Adult C57bl/6 (biodistribution study, 19.8±1.3 g) or tumor-bearing NSG mice (22.2±2.2 g) were anesthetized by isoflurane/O2, and one lateral tail vein was cannulated using a 27 G needle. A respective radiotracer (~ 390 kBq/g body weight) was injected as a bolus via the tail vein, and subsequent PET scanning was performed. A ~1000-fold excess of unlabeled JMS0414 (14 for [^18F]MRS-4648 ([^18F]2)), unlabeled PSB-19427 (1), or PSB-12651 (15) (for [^18F]PSB-19427 ([^18F]1)) was injected into a subgroup of tumor-bearing mice 10 min before radiotracer injection in the blocking studies. PET imaging studies were carried out using a submillimeter high resolution (0.7 mm full width at half-maximum) small animal scanner (32 module quadHIDAC, Oxford Positron Systems Ltd., Oxford, UK) with a uniform spatial resolution (<1 mm) over a large cylindrical field (165 mm diameter, 280 mm axial length). […]

Regarding `Cn1c(=O)n([C@@H]2O[C@H](COP(=O)(O)CP(=O)(O)O)[C@@H](O)[C@H]2O)cc/c1=N/OCc1ccc(-c2cn(CC[18F])nn2)cc1` [[^18F]2, [^18F]-{[(2R,3S,4R,5R)-5-(4-{[(4-{1-[2-(fluoro)ethyl]-1H-1,2,3-triazol-4-yl}benzyl)-oxy]imino}-3-methyl-2-oxo-3,4-dihydropyrimidin-1(2H)-yl)-3,4-dihydroxytetra-hydrofuran-2-yl]methoxy}methylenebisphosphonic acid], under “MDA‐MB‐231 model, 90 min PET”, the “Tumor accumulation” value is “very low tumor accumulation”.

With `CCCN(Cc1ccc(-c2cn(CCF)nn2)cc1)c1nc(Cl)nc2c1ncn2[C@@H]1O[C@H](COP(=O)(O)CP(=O)(O)O)[C@@H](O)[C@H]1O` [compound 1], where the note is “MDA‐MB‐231 model, PET, after 260 min”, the Muscle uptake is 0.86% ± 0.24 % ID/mL. The Tumor uptake (MDA‐MB‐231 tumor, PET, after 260 min) is 3.60% ± 1.27 %ID/mL.
